Measurements from patent publication EP0801063B1, “Thiazolidinedione derivatives having antidiabetic, hypolipidaemic, antihypertensive properties, process for their preparation and pharmaceutical compositions containing them” (Dr. Reddy's Laboratories Ltd., priority 1996, dated 1997).

Test system: C57BL/KsJ-db/db mice
Assay: Blood sugar and triglyceride lowering in db/db mice (in vivo test)
Settings: male C57BL/KsJ-db/db mice, 200 mg / kg oral gavage daily for 10 days; for Maximum reduction in RBS level in a 9 days treatment (%): random blood sugar in plasma, glucose oxidase method, relative to vehicle control
Protocol: Male C57BL/KsJ-db/db mice of 6 weeks age procured from the Jackson Laboratory, USA were used in the experiment. The mice were provided with standard pellets made by National Institute of Nutrition, Hyderabad, India and ad libitum water. The mice of 8 to 14 weeks age, having body weight 40 to 55 grams or more were used for testing.
The random blood sugar (RBS) values were measured by withdrawing blood (20 ul) through orbital sinus, using heparinised capillary, centrifuging the blood to obtain plasma and measuring the glucose level in the plasma by the glucose oxidase method using Stangen glucose-kit. The triglyceride levels in plasma were measured by glycerol 3 PO4 oxidase / peroxidase enzyme method using Stangen kit. Four mice in a group having 300 mg / dl or more of the blood sugar level were used for the test.
The test compounds were suspended in 2.0 % gum acacia and administered to test group at a dose of 200 mg / kg, through oral gavage daily for 10 days. The control group received the vehicle (Gum acacia 2 % 10 ml / kg). The random blood sugar levels and triglyceride levels were measured at diffirent time intervals before and after administration of test compounds. Troglitazone, (200 mg / kg daily dose) was used as a standard compound in the protocol.
The ability of reducing blood sugar level was determined as described below. The mean blood sugar values on zero day before administering the control vehicle (ZC) and treated group (TC) and the means of blood sugar values of the vehicle treated control on 3rd, 6th and 9th day and test compound treated group day control (DC) and day treated (DT).
The blood sugar lowering effect of test compound is calculated according to the following formula : Blood sugar lowering effect (%) = 1 -(DT/TC)/(DC/ZC)X 100 [formula]
The blood triglyceride (TG) lowering activity was calculated as percent reduction on the 9th day as compared to the control animal values.

Structure (SMILES)	Triglyceride lowering (%) (plasma triglyceride, percent reduction on the 9th day compared to control animals)	Maximum reduction in RBS level in a 9 days treatment (%)
Cc1c(C)c2c(c(C)c1O)CCC(C)(CN(C)CCOc1ccc(C=C3SC(=O)NC3=O)cc1)O2 (stereo not drawn) [Example 12, 5-[4-[2-[N-(6-Hydroxy-2,5,7,8-tetramethylchroman-2-ylmethyl)-N-methylamino]ethoxy]phenylmethylene]thiazolidine-2,4-dione]	70	43
Cc1c(C)c2c(c(C)c1O)CCC(C)(COc1ccc(CC3SC(=O)NC3=O)cc1)O2 (stereo not drawn) [Troglitazone, reference compound]		26
